# Reference: US20250268895A1, “Crystalline Forms of a BTK Inhibitor” (NOVARTIS AG, priority 2019, published 2025)
# How the values were obtained:
# Type in all cases: physicochemical
# [1] = Granulation simulation experiments; settings: water, ethanol, 2-propanol, Acetone, benzylalcohol; dried under vacuum
# Protocol: Granulating solvents were added drop wise to polymorphic Form A until solid is wetted sufficiently. The suspension was stirred by Vortex between each addition. The suspension was dried under vacuum. The remaining solid form was isolated and degree of crystallinity was analyzed by XRPD and/or DSC. The tested Granulating solvents were water, ethanol, 2-propanol, Acetone, benzylalcohol.
# [2] = Solvent equilibration of Modification A (stability in solvent, HT-XRPD)
# Protocol: (§1) Suspensions of Modification A were prepared in 23 selected solvents and let to equilibrate at room temperature (RT) for 4 weeks and at 50° C. for 2 weeks. Upon completion of the equilibration time, the solids were separated from the liquid phases, dried at ambient conditions and under vacuum (5 mbar/50° C.), and analyzed by HT-XRPD.
# When the suspensions dissolved, the solvent was removed by evaporation under vacuum (initially at 200 mbar/RT, then at 5 mbar/50° C.). The liquid phases were also evaporated under the same conditions. Residual solids were analyzed by HT-XRPD.
# [3] = Moisture uptake at 80% and 92% RH (HT-XRPD, TGMS); settings: 25° C., 24 hours
# Protocol: The moisture sorption of Modification A was evaluated by exposing the solid material to 80% and 92% RH at 25° C. for 24 hours. Afterwards, the solids were analyzed by HT-XRPD to evaluate any change in crystalline phase, and by TGMS to determine the water uptake. […] Therefore, Modification A could be considered non-hygroscopic.
# [4] = Dynamic vapor sorption (DVS); settings: for DVS highest change in mass: 95% RH
# [5] = Physico-chemical stability under stress conditions (HR-XRPD, TGMS, HPLC assay); settings: for XRPD pattern after stress conditions: all three test conditions (80° C. 1 month; 80° C./75% RH 1 month; 100° C. 3 days)
# Protocol: Modifications A, B and C were subjected to the following stress conditions: • 80° C. in closed vials for 1 month; • 80° C./75% RH in open vials for 1 month; • 100° C. in closed vials for 3 days;
# Afterwards, the solids were analyzed by HR-XRPD, TGMS and HPLC assay to evaluate potential solid phase change, loss on drying and chemical purity.
# Upon completion of the stability test, all solids were analyzed by HR-XRPD, TGMS and HPLC assay.
# Auto sampler temp.: 15° C.
# Column: Waters Sunfire C18 (100×4.6 mm; 3.5 μm).
# Gradient: Mobile phase A: 0.1% TFA in Water
# Mobile phase B: 0.1% TFA in Acetonitrile
# [6] = Stability under compression; settings: 5 minutes at 10 tons, hydraulic press
# Protocol: 100-300 mg of polymorphic Form A was compressed for 5 minutes at 10 tons with a hydraulic press (diameter of the tablets 13 mm). The sample was then analyzed by XRPD and DSC to check for any occurring polymorphic change.
# [7] = Solvent equilibration of Modifications B and C (stability in solvent, HT-XRPD)
# Protocol: as §1, with “Modifications B and C” for “Modification A”, “15” for “23”, “RT” for “room temperature (RT)”, “2” for “4”, “1 week.” for “2 weeks.”
# When the suspensions dissolved, the solvent was removed by evaporation under vacuum (initially 200 mbar/RT, then 5 mbar/50° C.). The liquid phases were also evaporated under the same conditions. Residual solids were analyzed by HT-XRPD.
# [8] = Conversion at room temperature monitored by HR-XRPD; settings: left at room temperature
# From the text: Modification C (Example 2) was left at room temperature and the conversion into Modification B was monitored by HR-XRPD and it was complete after 5 days.
# [9] = 80° C./75% RH, 1 month, open vial
# [10] = Dichloromethane, 50° C., 1 week
smiles,measurement,setting,value
"C=CC(=O)N(C)CCOc1c(N)ncnc1-c1cc(F)cc(NC(=O)c2ccc(C3CC3)cc2F)c1C [Modification A, N-(3-(6-Amino-5-(2-(N-methylacrylamido)ethoxy)pyrimidin-4-yl)-5-fluoro-2-methylphenyl)-4-cyclopropyl-2-fluorobenzamide]",Crystallinity (XRPD and/or DSC) after granulation simulation,[1],No change of crystallinity
same,HT-XRPD Evap. ML,"[2]; Acetone, 50° C., 2 weeks",A (l.y.)
same,HT-XRPD Evap. ML,"[2]; Acetonitrile, 50° C., 2 weeks",A (l.y.)
same,HT-XRPD Evap. ML,"[2]; Anisole, 50° C., 2 weeks",A (l.y.)
same,HT-XRPD Evap. ML,"[2]; Chloroform, 50° C., 2 weeks",A + B
same,HT-XRPD Vacuum dried,"[2]; DCM, RT, 4 weeks",B + C
same,HT-XRPD Evap. ML,"[2]; Isopropyl acetate, 50° C., 2 weeks",A (l.y.)
same,HT-XRPD Evap. ML,"[2]; MeOH, RT, 4 weeks",A (l.y.)
same,HT-XRPD Evap. ML,"[2]; MeOH/Acetone 50/50, RT, 4 weeks",A (l.y.)
same,HT-XRPD Evap. ML,"[2]; MeOH/DCM 50/50, RT, 4 weeks",B (l.y.)
same,HT-XRPD Vacuum dried,"[2]; MeOH/DCM 50/50, RT, 4 weeks",B + C
same,HT-XRPD Evap. ML,"[2]; Nitromethane, 50° C., 2 weeks",A (l.y.)
same,HT-XRPD Evap. ML,"[2]; Water, 50° C., 2 weeks",A (l.y.)
same,TGMS mass loss after exposure to humidity,[3]; 80% RH,0.2%
same,Hygroscopicity,[3]; 80% and 92% RH,non-hygroscopic
same,Physical stability (HT-XRPD) after exposure to humidity,[3]; 80 and 92% RH,physically stable
same,TGMS mass loss after exposure to humidity,[3]; 92% RH,0.2%
same,Solid recovered after DVS measurements,[4]; 25° and 40° C.,still Modification A
same,DVS water vapor uptake,"[4]; 25° and 40° C., RH profile 40-0-95-0-95-40%",did not show significant water vapor uptake
same,DVS highest change in mass,[4]; 25° C.,0.4%
same,DVS highest change in mass,[4]; 40° C.,0.3%
same,Loss on drying,"[5]; 80° C., 1 month, closed vial",0.003%
same,Loss on drying,[5]; [9],0.003%
same,Loss on drying,"[5]; 100° C., 3 days, closed vial",0.003%
same,XRPD pattern after stress conditions,[5],unchanged
same,Polymorphic change (XRPD and DSC) after compression,[6],no change to the material
"C=CC(=O)N(C)CCOc1c(N)ncnc1-c1cc(F)cc(NC(=O)c2ccc(C3CC3)cc2F)c1C [Modification B, N-(3-(6-Amino-5-(2-(N-methylacrylamido)ethoxy)pyrimidin-4-yl)-5-fluoro-2-methylphenyl)-4-cyclopropyl-2-fluorobenzamide]",DVS water vapor uptake,[4]; Modifications B and C,did not show significant water vapor uptake
same,XRPD of solid recovered after DVS measurement,"[4]; Modifications B and C, 25° C.",unchanged
same,HT-XRPD Evap. ML,"[7]; Acetonitrile, 50° C., 1 week",A (l.y.)
same,HT-XRPD Evap. ML,"[7]; Anisole, RT, 2 weeks",A (l.y.)
same,HT-XRPD Ambient Dried,"[7]; Chloroform, RT, 2 weeks",A (l.y)
same,HT-XRPD Vacuum dried,"[7]; Chloroform, RT, 2 weeks",(l.c.)
same,HT-XRPD Evap. ML,[7]; [10],B + C
same,HT-XRPD Vacuum dried,[7]; [10],B + C
same,HT-XRPD Ambient Dried,"[7]; Dichloromethane, RT, 2 weeks",C (l.c.)
same,HT-XRPD Evap. ML,"[7]; Dichloromethane, RT, 2 weeks",B + SB (l.y.)
same,HT-XRPD Vacuum dried,"[7]; Dichloromethane, RT, 2 weeks",B + C
same,HT-XRPD Evap. ML,"[7]; Ethanol, 50° C., 1 week",A (l.y.)
same,HT-XRPD Evap. ML,"[7]; Isopropyl acetate, 50° C., 1 week",A (l.y.)
same,HT-XRPD Evap. ML,"[7]; Nitromethane, RT, 2 weeks",A (l.y.)
same,Loss on drying,"[5]; 80° C., 1 month, closed vial",0.009%
same,Loss on drying,[5]; [9],0.004%
same,Loss on drying,"[5]; 100° C., 3 days, closed vial",0.004%
same,XRPD pattern after stress conditions,[5],unchanged
"C=CC(=O)N(C)CCOc1c(N)ncnc1-c1cc(F)cc(NC(=O)c2ccc(C3CC3)cc2F)c1C [Modification C, N-(3-(6-Amino-5-(2-(N-methylacrylamido)ethoxy)pyrimidin-4-yl)-5-fluoro-2-methylphenyl)-4-cyclopropyl-2-fluorobenzamide]",DVS water vapor uptake,[4]; Modifications B and C,did not show significant water vapor uptake
same,XRPD of solid recovered after DVS measurement,"[4]; Modifications B and C, 25° C.",mixture of Modifications B and C
same,HT-XRPD Evap. ML,"[7]; 2-Methyl-2-butanol, 50° C., 1 week",A (l.y.)
same,HT-XRPD Evap. ML,"[7]; Acetone, 50° C., 1 week",A (l.y.)
same,HT-XRPD Evap. ML,"[7]; Acetonitrile, 50° C., 1 week",A (l.y.)
same,HT-XRPD Evap. ML,"[7]; Anisole, RT, 2 weeks",A (l.y.)
same,HT-XRPD Ambient Dried,"[7]; Chloroform, RT, 2 weeks",C + SC
same,HT-XRPD Evap. ML,"[7]; Chloroform, RT, 2 weeks",C + SC
same,HT-XRPD Evap. ML,"[7]; Cyclopentanone, RT, 2 weeks",A (l.y)
same,HT-XRPD Evap. ML,[7]; [10],C (l.y.)
same,HT-XRPD Vacuum dried,"[7]; Dichloromethane, RT, 2 weeks",B + C
same,HT-XRPD Evap. ML,"[7]; Ethanol, 50° C., 1 week",A (l.y.)
same,HT-XRPD Evap. ML,"[7]; Ethanol, RT, 2 weeks",A (l.y.)
same,HT-XRPD Evap. ML,"[7]; Isopropyl acetate, RT, 2 weeks",A (l.y.)
same,HT-XRPD Evap. ML,"[7]; Methanol, RT, 2 weeks",A (l.y.)
same,HT-XRPD Evap. ML,"[7]; Nitromethane, 50° C., 1 week",A (l.y.)
same,HT-XRPD Evap. ML,"[7]; Nitromethane, RT, 2 weeks",A (l.y.)
same,HT-XRPD Evap. ML,"[7]; Water, RT, 2 weeks",A (l.y.)
same,Loss on drying,"[5]; 80° C., 1 month, closed vial",0.007%
same,Loss on drying,[5]; [9],0.006%
same,Loss on drying,"[5]; 100° C., 3 days, closed vial",0.003%
same,XRPD pattern after stress conditions,[5],converted to Modification B
same,Time to complete conversion into Modification B,[8],5 days
